Data: ChEMBL document CHEMBL2086337, “Inhibition of monoamine oxidase by 8-phenoxymethylcaffeine derivatives” (Bioorg Med Chem, 2012)

How the values were obtained:
[1] = molecular target: T1, Amine oxidase [flavin-containing] A (Homo sapiens, UniProt P21397); assay: Inhibition of human recombinant MAO-A expressed in baculovirus infected insect cells using kynuramine as substrate after 20 mins by fluorescence spectrophotometry
T1 sequence (P21397 whole entry): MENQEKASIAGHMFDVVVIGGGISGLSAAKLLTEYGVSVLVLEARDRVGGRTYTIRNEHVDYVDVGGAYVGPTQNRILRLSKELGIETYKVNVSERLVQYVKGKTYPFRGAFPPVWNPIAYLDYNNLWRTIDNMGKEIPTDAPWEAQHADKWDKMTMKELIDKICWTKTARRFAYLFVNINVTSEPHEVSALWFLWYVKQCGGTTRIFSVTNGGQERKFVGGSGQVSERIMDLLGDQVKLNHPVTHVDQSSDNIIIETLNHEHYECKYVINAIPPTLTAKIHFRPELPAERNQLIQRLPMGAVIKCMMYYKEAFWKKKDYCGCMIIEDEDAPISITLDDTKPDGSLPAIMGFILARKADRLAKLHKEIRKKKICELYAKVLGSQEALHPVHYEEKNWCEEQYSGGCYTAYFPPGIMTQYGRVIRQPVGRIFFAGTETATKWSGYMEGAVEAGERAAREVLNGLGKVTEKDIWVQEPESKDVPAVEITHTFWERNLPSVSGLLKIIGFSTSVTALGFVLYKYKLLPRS

[2] = molecular target: T2, Amine oxidase [flavin-containing] B (Homo sapiens, UniProt P27338); assay: Inhibition of human recombinant MAO-B expressed in baculovirus infected insect cells using kynuramine as substrate after 20 mins by fluorescence spectrophotometry
T2 sequence (P27338 whole entry): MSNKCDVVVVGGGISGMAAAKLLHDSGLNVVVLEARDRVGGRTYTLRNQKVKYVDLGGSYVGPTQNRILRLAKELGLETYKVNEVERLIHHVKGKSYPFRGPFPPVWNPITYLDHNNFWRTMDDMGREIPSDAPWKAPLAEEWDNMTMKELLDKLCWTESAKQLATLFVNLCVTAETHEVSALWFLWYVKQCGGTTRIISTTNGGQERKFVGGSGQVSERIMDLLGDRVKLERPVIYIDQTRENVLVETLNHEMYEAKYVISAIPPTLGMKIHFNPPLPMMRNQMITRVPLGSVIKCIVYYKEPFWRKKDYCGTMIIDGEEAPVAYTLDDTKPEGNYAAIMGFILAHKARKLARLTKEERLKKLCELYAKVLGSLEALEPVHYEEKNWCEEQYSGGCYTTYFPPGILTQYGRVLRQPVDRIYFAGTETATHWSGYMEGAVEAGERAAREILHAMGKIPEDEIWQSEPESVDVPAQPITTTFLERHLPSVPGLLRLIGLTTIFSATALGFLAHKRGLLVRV

[3] = species on record: Homo sapiens; assay: Selectivity index, ratio of IC50 for human recombinant MAO-A to IC50 for human recombinant MAO-B
[4] = molecular target: T1, Amine oxidase [flavin-containing] A; assay: Inhibition of human recombinant MAO-A expressed in baculovirus infected insect cells using kynuramine as substrate after 20 mins by horseradish peroxidase-coupled assay
[5] = molecular target: T2, Amine oxidase [flavin-containing] B; assay: Inhibition of human recombinant MAO-B expressed in baculovirus infected insect cells using kynuramine as substrate after 20 mins by horseradish peroxidase-coupled assay
[6] = molecular target: T1, Amine oxidase [flavin-containing] A; assay: Reversible inhibition of human recombinant MAO-A expressed in baculovirus infected insect cells using kynuramine as substrate at 0.3 uM incubated up to 60 mins prior to substrate addition measured after 15 mins by fluorescence spectrophotometry; conditions: 0.25 h
[7] = molecular target: T2, Amine oxidase [flavin-containing] B; assay: Competitive inhibition of human recombinant MAO-B expressed in baculovirus infected insect cells using kynuramine as substrate by Lineweaver-Burk plot analysis
[8] = molecular target: T2, Amine oxidase [flavin-containing] B; assay: Reversible inhibition of human recombinant MAO-B expressed in baculovirus infected insect cells using kynuramine as substrate at 0.3 uM incubated up to 60 mins prior to substrate addition measured after 15 mins by fluorescence spectrophotometry; conditions: 0.25 h
[9] = molecular target: T2, Amine oxidase [flavin-containing] B; assay: Reversible inhibition of human recombinant MAO-B expressed in baculovirus infected insect cells using kynuramine as substrate at 9.7 uM incubated up to 60 mins prior to substrate addition measured after 15 mins by fluorescence spectrophotometry; conditions: 0.25 h
[10] = molecular target: T1, Amine oxidase [flavin-containing] A; assay: Reversible inhibition of human recombinant MAO-A expressed in baculovirus infected insect cells using kynuramine as substrate at 9.7 uM incubated up to 60 mins prior to substrate addition measured after 15 mins by fluorescence spectrophotometry; conditions: 0.25 h

SMILES	IC50 [1] [µM]	IC50 [2] [µM]	Ratio IC50 [3]	IC50 ([4]; read-out: IC50) [µM]	IC50 [5] [µM]	further results
Cn1c(=O)c2c(nc(CCSc3ccc(Br)cc3)n2C)n(C)c1=O			0.9	117	124	
Cn1c(=O)c2c(nc(COc3ccccc3)n2C)n(C)c1=O			4	21.1	5.78	
Cn1c(=O)c2c(nc(CSc3ccc(Cl)cc3)n2C)n(C)c1=O	31.6	6.91	5			
Cn1c(=O)c2c(nc(CCSc3cccc(Cl)c3)n2C)n(C)c1=O					5.67	IC50 [4]: Not Active
Cn1c(=O)c2c(nc(COc3cccc(Cl)c3)n2C)n(C)c1=O					0.334	IC50 [4]: Not Active
Cn1c(=O)c2c(nc(CCSc3ccc(Cl)cc3)n2C)n(C)c1=O			18	142	7.79	
COc1cccc(OCc2nc3c(c(=O)n(C)c(=O)n3C)n2C)c1					1.96	IC50 [4]: Not Active
Cc1cccc(OCc2nc3c(c(=O)n(C)c(=O)n3C)n2C)c1			15	18.8	1.23	
Cn1c(=O)c2c(nc(COc3cccc(Br)c3)n2C)n(C)c1=O			230	34	0.148	inhibition (INH) [6]: Active; inhibition (INH) [7]: Active; inhibition (INH) [8]: Active
Cn1c(=O)c2c(nc(COc3ccc(Cl)cc3)n2C)n(C)c1=O			82	20.4	0.25	
Cn1c(=O)c2c(nc(COc3cccc(C(F)(F)F)c3)n2C)n(C)c1=O			7	4.59	0.641	inhibition (INH) [9]: Active; inhibition (INH) [10]: Active
Cn1c(=O)c2c(nc(CCSc3cccc(Br)c3)n2C)n(C)c1=O			6	372	64.1	
Cn1c(=O)c2c(nc(CCSc3ccccc3)n2C)n(C)c1=O			1.3	139	108	
Cn1c(=O)c2c(nc(COc3ccc(Br)cc3)n2C)n(C)c1=O			57	10.7	0.189	
Cn1c(=O)c2c(nc(COc3ccc(F)cc3)n2C)n(C)c1=O			10	8.22	0.825	

More lines, main results first:

IC50 [1] [µM]	IC50 [2] [µM]	Ratio IC50 [3]	IC50 ([4]; read-out: IC50) [µM]	IC50 [5] [µM]	SMILES	further results
44.7	18.4	2			CCOc1cccc(SCc2nc3c(c(=O)n(C)c(=O)n3C)n2C)c1	
51.8	17.9	3			Cc1cccc(SCc2nc3c(c(=O)n(C)c(=O)n3C)n2C)c1	
41.3	8.42	5			COc1cccc(SCc2nc3c(c(=O)n(C)c(=O)n3C)n2C)c1	
50.1	22.3	2			Cn1c(=O)c2c(nc(CSc3cccc(F)c3)n2C)n(C)c1=O	
66.2	23.4	3			Cn1c(=O)c2c(nc(CSc3ccccc3)n2C)n(C)c1=O	
19.4	6.12	3			Cn1c(=O)c2c(nc(CSc3cccc(Cl)c3)n2C)n(C)c1=O	
20.8	4.05	5			Cn1c(=O)c2c(nc(CSc3ccc(Br)cc3)n2C)n(C)c1=O	
23.8	4.9	5			Cn1c(=O)c2c(nc(CSc3cccc(Br)c3)n2C)n(C)c1=O	
		8	13.2	1.61	Cn1c(=O)c2c(nc(COc3cccc(F)c3)n2C)n(C)c1=O	
